Measured values published in patent publication US11331368B2, “Angiotensin receptor agonists and uses thereof” (Monash University, priority 2017, dated 2022).
Entries after “also recorded” stand apart in the source; their conditions may differ. Read-outs that look alike come from different tables or passages of the source. Values belong to the molecule of their own block, whether it stands above or below them. Square brackets hold non-standard residues; d marks the D form. Ends that are not written are not given here. βVal = β-valine (β-amino acid form of Val); βIle = beta-form isoleucine

How the values were obtained:
human AT1R = molecular target: T1, human AT1R (Homo sapiens, UniProt P30556); experiment: Competition radioligand binding (125I-Sar1-Ile8-AngII) in AT1R-transfected HEK-293 cells
T1 construct: expressed in transfected cells
T1 sequence (P30556 1-359): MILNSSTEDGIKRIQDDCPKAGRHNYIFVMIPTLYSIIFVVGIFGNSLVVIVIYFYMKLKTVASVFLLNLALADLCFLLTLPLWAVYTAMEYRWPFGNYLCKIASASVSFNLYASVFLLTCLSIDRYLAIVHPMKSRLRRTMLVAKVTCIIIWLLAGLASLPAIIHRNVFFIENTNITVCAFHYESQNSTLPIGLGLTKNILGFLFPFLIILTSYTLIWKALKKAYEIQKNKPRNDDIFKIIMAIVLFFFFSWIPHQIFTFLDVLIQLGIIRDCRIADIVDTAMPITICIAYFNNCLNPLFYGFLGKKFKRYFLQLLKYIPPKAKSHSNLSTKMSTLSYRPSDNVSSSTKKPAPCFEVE
Experimental: This will lead to the generation of IC50 values that determine the relative ability of test compounds to interact with both Angiotensin receptors.
Cells were grown to approximately 80% confluence before being re-plated into 48 well plates at 1×10^5 cells/well and grown for 48 hours at 37° C. for a whole cell competition binding assay. [125I]-Sar1Ile8Ang II at 50,000 cpm, incubated for 45 minutes at 37° C., in the absence or presence of unlabeled ligands, prepared in binding buffer (DMEM, 0.1% BSA), were used in the competition assays at concentrations ranging from 1 μM to 10 μM. For each experiment, each ligand concentration was tested in duplicate or triplicate, and each experiment was repeated at least 3 separate times. […] The ability of each ligand to inhibit specific binding of [125I]-Sar1Ile8Ang II was measured on a gamma counter with all counts corrected for NSB.

mouse aortae = experiment: Vasorelaxation of pre-contracted mouse aortae; details: 0.1-1000 nM, pre-contracted with U46619
From the text: FIG. 17: The selective AT2R ligands, β-Pro^7-Ang III and D-Arg^2-β-Pro^7-Ang III, are functional agonists in vasculature.

[1] = tested on: male FVB/N mice on high salt diet, liver; experiment: High salt (5%) diet intervention model, liver; format: in vivo, mouse; details: weeks 5-8; peptides 75 pmol/kg/min s.c.; Cand 2 mg/kg/day, captopril 3 mg/kg/day
Experimental: (§1) C) In the intervention (or reversal) model, male FVB/N mice were treated with selective AT2Rs agonists after the establishment of cardiovascular disease using a high salt diet, in order to reverse cardiovascular pathologies. In some experiments, the ACE inhibitor captopril (dose) or the ARB candesartan cilexetil (dose) were given for 4 weeks in drinking water. Organs examined included heart, kidney and liver and these were compared to either untreated mice or high salt-fed mice that were treated with saline.
(§2) Mice were placed on either a normal rodent diet (0.35% NaCl) which acted as control or a high salt diet (5% sodium in food chow) for 8 weeks. After 4 weeks, mice were also treated subcutaneously (via osmotic mini-pump) with either saline or an AT2R agonist (75 pmol/kg/min subcutaneously) for 4 weeks. Mice continued to be fed a high salt diet whilst receiving these treatments.
Liver sections used either picrosirius red staining or Masson's trichome staining as described above. Higher concentrations of picrosirius red were often used under polarized light microscopy. The liver was removed and sectioned with half of the liver placed in 10% formalin and the rest frozen in liquid nitrogen before being stored in ˜80° C. freezer for future use. Formalin fixed, paraffin embedded livers were sectioned at thickness of 4 μm and were stained with Masson's trichrome according to standard procedures for analysis of liver fibrosis. […] Sections were re-fixed in Bouin's solution for 1 hour at 56° C. to improve staining quality then rinsed in running tap water for 5-10 minutes to remove yellow colour. Following this, sections were stained in Weigert's iron hematoxylin working solution for 10 minutes. Rinsed in running warm tap water for 10 minutes. Washed in distilled water. Stained in Biebrich scarlet-acid fuchsin solution for 10-15 minutes.
Washed in distilled water. Differentiated in phosphomolybdic-phosphotungstic acid solution for 10-15 minutes or until collagen was no longer red. Sections were transferred directly (without rinse) to aniline blue solution and stained for 5-10 minutes. Rinsed briefly in distilled water and differentiated in 1% acetic acid solution for 2-5 minutes. Washed in distilled water. […] Mounted with DPX mounting medium. Quantification of liver fibrosis was performed using images captured with the Aperio scanner (Monash Histology Platform, Monash University), with ×5 magnification. Each liver section had 5 different fields of view photographed at this magnification. Percentage of interstitial and perivascular collagen was analysed and quantified using ImageJ 1.48 software (Java, NIH), and the percentage from 5 random fields of view were averaged for final percentage of collagen for that particular animal. All analysis of collagen expression was conducted in a blinded fashion.

human AT2R = molecular target: T2, human AT2R (Homo sapiens, UniProt P50052); experiment: Competition radioligand binding (125I-Sar1-Ile8-AngII) in AT2R-transfected HEK-293 cells; details: for binding at AT2R (displacement of 125I-Sar1-Ile8-AngII), in words: transfected HEK-293 cells
T2 construct: expressed in transfected cells
T2 sequence (P50052 1-363): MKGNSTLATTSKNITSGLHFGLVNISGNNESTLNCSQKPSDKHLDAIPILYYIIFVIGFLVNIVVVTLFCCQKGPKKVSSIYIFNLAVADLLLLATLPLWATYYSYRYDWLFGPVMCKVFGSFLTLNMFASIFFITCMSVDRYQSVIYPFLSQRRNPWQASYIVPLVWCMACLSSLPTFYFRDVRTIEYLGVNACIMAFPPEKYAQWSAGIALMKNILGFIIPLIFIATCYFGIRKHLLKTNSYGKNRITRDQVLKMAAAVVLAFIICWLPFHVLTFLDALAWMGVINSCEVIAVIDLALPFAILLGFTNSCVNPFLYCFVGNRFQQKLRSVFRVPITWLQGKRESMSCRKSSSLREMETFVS

[2] = tested on: male FVB/N mice on high salt diet, heart; experiment: High salt (5%) diet intervention model, heart; format: in vivo, mouse
Experimental: as §1
A high-salt diet (5% salt) model is a clinically relevant and disease-reversal model which can replicate the high salt intake by humans which is currently a growing problem in the developed countries. High salt intake induces changes in the cardiovascular system and induces remodelling and fibrosis in the heart, kidney and liver.
as §2
All mice which underwent surgery were anaesthetized with Isoflurane (Isorrane) (5% induction and 2.5% maintenance) and an incision made in the midscapular region through which osmotic minipumps (Alzet model 2004, Alza Corp) were inserted for subcutaneous drug administration. The incision area was sutured with 6/0 DY silk (Dynek Pty Ltd) and antibiotic powder applied (Cicatrin, Pfizer) followed by intramuscular injection of the analgesic Cartrophen (0.1 ml of a 1.5 mg/ml stock solution; Biopharm Australia). Systolic blood pressure (SBP) was measured using non-invasive tail-cuff plethysmography apparatus (MC4000 Blood Pressure Analysis System, Hatteras Instrument Inc) before drug treatment (week 0), and then fortnightly. At the end of the 8 week treatment period mice were weighed before being killed by overdose of isoflurane inhalation and cervical dislocation.
To measure collagen deposition, frozen sections of heart, kidney or aorta (all 5 μm thickness) were air dried for 10 minutes and were brought through 3 times xylene (2 minutes each), and 3 times absolute alcohol washes before being rinsed in tap H2O for 30 seconds. Staining with an optimal concentration of picrosirius red (in this instance 0.05% picrosirius red diluted in saturated picric acid) was performed and left for an hour. Sections were then rinsed in water and differentiated in 0.01M HCl for 2 minutes, followed by dehydration via 3 times absolute alcohol washes. Then, slides were brought through 3 times xylene washes before being cover slipped according to standard histological techniques using DPX as the mounting medium. Images were taken under ×20 magnification, using bright field (Olympus, BX51) and circularized polarized light microscopy (DM IRB, Leica) while percentage of positive interstitial collagen staining per total field of view was quantified using ImageJ 1.46 software (Java, NIH), and averaged out from a total of eight views as the final percentage collagen content in a particular animal.
Immunostaining was performed on 5 μm thick transverse frozen heart sections. These sections were air dried and fixed in ice-cold acetone for approximately 15 minutes before washing with 0.01M PBS buffer (3×10 minutes). Sections were then incubated with 10% goat serum in 0.01M PBS for 30 minutes to reduce non-specific binding. If the primary antibody is raised in goat, this pre-blocked medium is substituted with 5% BSA in PBS and Triton-X. Next, blocking buffers were removed and the primary antibody to respective markers were applied overnight at room temperature based on the following dilution and origin of the antibodies: α-SMA (1:500, Abcam), Vimentin (1:500, Santa Cruz), P-IκBα (1:200, Cell Signalling), F4/80 macrophage (1:100, Serotec). […]

[3] = tested on: human cardiac fibroblasts; experiment: AT1R and AT2R mRNA expression in human cardiac fibroblasts (qPCR); format: cell-based; details: 5 ng/ml for 72 hours
Experimental: FIG. 2: TGF-β1 differentially affects the mRNA expression of AT1R and AT2R in human cardiac fibroblasts. Quantitative qPCR data showing that both AT1R and AT2R are expressed in human cardiac fibroblasts. TGF-β1 (5 ng/ml for 72 hours) increased AT2R mRNA expression but not AT1R mRNA expression. Quantitative values were obtained from the threshold cycle (Ct) number. Target gene expression level was normalized against beta-actin mRNA expression for each sample and data was expressed relative to the control. Data expressed as mean±sem relative to untreated HCFs; *P<0.05 versus untreated control (t-test).

[4] = tested on: human cardiac fibroblasts; experiment: Pro-fibrotic effect of Ang II in human cardiac fibroblasts; format: cell-based
Experimental: Commercially available human cardiac fibroblasts (HCF, Catalog #6300, Sciencell, Calif., USA) were grown in T75 flask maintained in an incubator at 37° C., 5% CO2. Complete media composition: M199 media (#11150-059, life technologies)+10% FBS (#10437-028, life technologies)+1% Fibroblast Growth Supplement-2 (#2382, ScienCell)+1% penicillin/streptomycin 10,000 U/ml antibiotics (#15140-122, Life Technologies). Fresh complete media was replenished every alternate day until culture reached 70% confluence in which media is replenished daily until it reached approximately 90% confluence in order to passage/subculture. To subculture, media was discarded and culture was rinsed with warm PBS. After which, culture was detached using warm 0.05% Trypsin+EDTA with gentle swirling of flask to make sure cells were not adherent to surface of flask. Trypsin was then neutralized with complete media and suspension was then transferred into a new falcon tube and centrifuged at 1000 rpm for 5 minutes. […]
Once treatment is complete, cells were washed with warm PBS and detached using Accutase (A6964, Sigma), with 5 minutes incubation at 37° C. […] The supernatant (˜20 ul) was transferred to a new tube and protein concentrations were measured using Biorad Lowry protein assay. Protein quantification of respective markers were performed via standard western blot analysis. […]

[5] = molecular target: T3, human Angiotensin II Receptor Type 2 (AT2R) (human, UniProt P50052 1-363); experiment: AT2R over AT1R, from IC50s of competition radioligand binding; reference AT1R
T3 construct: whole, on cells; also endogenous on human cardiac fibroblasts (functional entries); also called AT2 receptor
T3 sequence (looked up): T2 sequence (P50052 1-363)
Experimental: (§3) For each experiment, each ligand concentration was tested in duplicate or triplicate, and each experiment was repeated at least 3 separate times.

[6] = molecular target: T3, human Angiotensin II Receptor Type 2 …; experiment: competition radioligand binding on HEK-293 cells with AT2R; competitor [125I]-Sar1Ile8Ang II
Experimental: as §3

[7] = molecular target: T4, human Angiotensin II Receptor Type 1 (AT1R) (human, UniProt P30556 1-359); experiment: competition radioligand binding on HEK-293 cells with AT1R; competitor [125I]-Sar1Ile8Ang II
T4 construct: whole, on cells; also endogenous on human cardiac fibroblasts (functional entry); also called AT1 receptor
T4 sequence (looked up): T1 sequence (P30556 1-359)
Experimental: as §3

Fold AT2R selectivity (human AT2R; AT2R over AT1R, Table 3): >300,000 fold | AT2R/AT1R selectivity ratio (human AT2R; approximate or conservatively estimated): > 300,000 fold | binding at AT2R (displacement of 125I-Sar1-Ile8-AngII), in words (human AT2R): high affinity
Molecule: D-Arg-Val-Tyr-Ile-His-β-Pro-Phe [D-Arg β-Pro-Ang III]
binding at AT1R (displacement of 125I-Sar1-Ile8-AngII), in words (human AT1R; listed as D-Arg^2-β-Pro^7-Ang III): bind poorly; also recorded: did not substantially displace | vasorelaxation of pre-contracted aortae (mouse aortae): concentration-dependent vasorelaxation | liver fibrosis (picrosirius red, polarized light) [1]: normalised liver fibrosis | liver steatosis (Oil Red O) [1]: significantly reduced steatosis | myofibroblast differentiation in heart (α-SMA) ([2]; 75 pmol/kg/min s.c., weeks 5-8): fully reversed the high salt-induced myofibroblast differentiation | cardiac fibrosis (picrosirius red) ([2]; weeks 5-8 of high salt diet, peptides 75 pmol/kg/min s.c. mini-pump, Cand 2 mg/kg/day, captopril 3 mg/kg/day in drinking water): reversed established cardiac fibrosis

Fold AT2R selectivity [5]: 1040 fold | IC50 [6]: 9.6 nM
B1: βIle-8-Ang III (peptide)
peptide: RVYIHP[βIle]-OH
notes: synthetic peptide; also called Arg-Val-Tyr-Ile-His-Pro-β-Ile

IC50 [7]: 1210 nM
B2: βVal-Trp-8-Ang III (peptide)
peptide: R[βVal]YIHPW
notes: synthetic peptide; also called Arg-β-Val-Tyr-Ile-His-Pro-Trp

The next lines start with the molecule.

Molecule: TGF-β1: pro-fibrotic agent (fibrogenic cytokine) used to stimulate human cardiac fibroblasts
AT1R mRNA expression [3]: not | AT2R mRNA expression [3]: increased

Molecule: Ang II [reference compound]
binding at AT1R (displacement of 125I-Sar1-Ile8-AngII), in words (human AT1R): readily binds | myofibroblast differentiation (α-SMA expression) ([4]; HCFs treated with Ang II): caused myofibroblast differentiation | protein expression of collagen ([4]; varying concentrations for 3 days, Western blot): dose-dependent increases | binding at AT2R (displacement of 125I-Sar1-Ile8-AngII), in words (human AT2R): readily binds
